Results: the supplement of paper PMC4862054

Legend:
Conditions in all cases: incubation time: 72 h
MDA-MB-436 [1] = experiment: normalised response (% of control), CellTiter-Glo; higher = more viable cells (100 = DMSO, 0 = benzethonium chloride kill control)
Outline: (§1)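 Every value is a normalised signal taken at one concentration of a dilution series. Compound was placed in 384-well plates at 5 concentrations in 10-fold steps over a compound-specific 10,000-fold range, and 20 µl of breast cancer cell suspension was seeded onto it. After 72 h, CellTox Green fluorescence (485/520 nm) was measured first and CellTiter-Glo luminescence second, following 10 min at room temperature. Each plate was scaled to 0.1 % DMSO (100) and a positive kill control (0).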

HCC1143 [2] = experiment: as above
Outline: as §1

HCC1937 [3] = experiment: as above
Outline: as §1

CAL-51 [4] = experiment: as above
Outline: as §1

Hs578T [5] = experiment: as above
Outline: as §1

HCC1599 [6] = experiment: as above
Outline: as §1

BT-474 [7] = experiment: as above
Outline: as §1

HDQ-P1 [8] = experiment: as above
Outline: as §1

CAL-85-1 [9] = experiment: as above
Outline: as §1

CAL-120 [10] = experiment: as above
Outline: as §1

SK-BR-3 = experiment: as above
Outline: as §1

MDA-MB-453 [11] = experiment: as above
Outline: as §1

MCF-10A [12] = experiment: as above
Outline: as §1

CAL-148 [13] = experiment: as above
Outline: as §1

MDA-MB-231 [14] = experiment: as above
Outline: as §1

DU-4475 [15] = experiment: as above
Outline: as §1

MDA-MB-468 [16] = experiment: as above
Outline: as §1

MFM-223 [17] = experiment: as above
Outline: as §1

BT-549 [18] = experiment: as above
Outline: as §1

MDA-MB-436 [19] = experiment: normalised response (% of control), CellTox Green; higher = less cell death (100 = DMSO, 0 = benzethonium chloride kill control)
Outline: as §1

HCC1143 [20] = experiment: as above
Outline: as §1

HCC1937 [21] = experiment: as above
Outline: as §1

CAL-51 [22] = experiment: as above
Outline: as §1

HCC1599 [23] = experiment: as above
Outline: as §1

BT-474 [24] = experiment: as above
Outline: as §1

HDQ-P1 [25] = experiment: as above
Outline: as §1

CAL-85-1 [26] = experiment: as above
Outline: as §1

CAL-120 [27] = experiment: as above
Outline: as §1

MDA-MB-453 [28] = experiment: as above
Outline: as §1

MCF-10A [29] = experiment: as above
Outline: as §1

CAL-148 [30] = experiment: as above
Outline: as §1

MDA-MB-231 [31] = experiment: as above
Outline: as §1

DU-4475 [32] = experiment: as above
Outline: as §1

MDA-MB-468 [33] = experiment: as above
Outline: as §1

MFM-223 [34] = experiment: as above
Outline: as §1

BT-549 [35] = experiment: as above
Outline: as §1

Hs578T [36] = experiment: as above
Outline: as §1

Compound | normalised response (MDA-MB-436 [1]) | normalised response (HCC1143 [2]) | normalised response (HCC1937 [3]) | normalised response (CAL-51 [4]) | normalised response (Hs578T [5]) | normalised response (HCC1599 [6]) | normalised response (BT-474 [7]) | normalised response (HDQ-P1 [8]) | normalised response (CAL-85-1 [9]) | normalised response (CAL-120 [10]) | normalised response (SK-BR-3) | normalised response (MDA-MB-453 [11]) | normalised response (MCF-10A [12]) | normalised response (CAL-148 [13]) | normalised response (MDA-MB-231 [14]) | normalised response (DU-4475 [15]) | normalised response (MDA-MB-468 [16]) | normalised response (MFM-223 [17]) | normalised response (BT-549 [18]) | normalised response (MDA-MB-436 [19]) | normalised response (HCC1143 [20]) | normalised response (HCC1937 [21]) | normalised response (CAL-51 [22]) | normalised response (HCC1599 [23]) | normalised response (BT-474 [24]) | normalised response (HDQ-P1 [25]) | normalised response (CAL-85-1 [26]) | normalised response (CAL-120 [27]) | normalised response (MDA-MB-453 [28]) | normalised response (MCF-10A [29]) | normalised response (CAL-148 [30]) | normalised response (MDA-MB-231 [31]) | normalised response (DU-4475 [32]) | normalised response (MDA-MB-468 [33]) | normalised response (MFM-223 [34]) | normalised response (BT-549 [35]) | normalised response (Hs578T [36])
CC(C)(C)c1nc(-c2cccc(NS(=O)(=O)c3c(F)cccc3F)c2F)c(-c2ccnc(N)n2)s1 [Dabrafenib] (250 nM) | 106% | 106% | 105% | 129% | 90.8% | 107% | 97.9% | 115% | 99.8% | 36.6% | 105% | 92.3% | 125% | 101% | 106% | 8.24% | 92% | 107% | 91% | 101% | 111% | 106% | 110% | 100% | 99.1% | 114% | 110% | -30.1% | 105% | 94.2% | 106% | 107% | 83% | 117% | 103% | 82.7% | 
CC[C@H](CO)Nc1nc(NCc2ccccc2)c2ncn(C(C)C)c2n1 [Seliciclib] (1000 nM) | 107% | 103% | 105% | 80.4% | 109% | 111% | 96.9% | 101% | 112% | 97.4% | 106% | 115% | 95.3% | 104% | 104% | 101% | 110% | 109% | 95.8% | 84.6% | 107% | 125% | 101% | 103% | 101% | 92.7% | 95.5% | 101% | 102% | 101% | 106% | 114% | 99.2% |  | 95.6% | 117% | 86.4%
CN[C@@H](C)C(=O)N[C@H]1CN(C(=O)CC(C)C)CC[C@H]2CC[C@@H](C(=O)NC(c3ccccc3)c3ccccc3)N2C1=O [AT-406] (1000 nM) | 99.1% | 95.6% | 94% | 98.2% | 95.7% | 106% | 24.8% | 83.1% | 63.3% | 85.6% | 99.6% | 78.5% | 107% | 82.4% | 38.8% | 101% | 71.3% | 101% | 59.7% | 86.1% | 107% | 101% | 97.2% | 93.1% | 89.7% | 79.6% | 24% | 76.4% | 94.9% | 109% | 55.1% | -42.1% | 101% | 109% | 54.2% | 53.4% | 
CC1(COc2ccc3c(c2)ncn3-c2ccc3cccc(N4CCC(N)CC4)c3n2)COC1 [Crenolanib] (1000 nM) | 103% | 101% | 100% | 86.2% | 96.4% | 110% | 111% | 108% | 117% | 86.7% | 123% | 114% | 113% | 109% | 122% | 96.2% | 101% | 102% | 82.5% | 50.8% | 99% | 51.6% | 85.9% | 94.7% | 91.4% | 71% | 104% | 99.5% | 112% | 108% | 97.7% | 124% | 101% |  | 100% | 71.2% | 83.4%
Cc1nc(C(=O)NCC(=O)O)c(O)c2ccc(Oc3ccccc3)cc12 [FG-4592] (1000 nM) | 100% | 109% | 101% | 119% | 109% | 117% | 106% | 116% | 105% | 102% | 110% | 98.6% | 113% | 97.2% | 102% | 103% | 103% | 102% | 102% | 108% | 110% | 110% | 112% | 93.5% | 101% |  | 101% | 103% | 111% | 94.2% | 93% | 103% | 107% | 86% | 103% | 97.3% | 85.2%
C=CCN(/C=C1/C(=O)O[C@H](COC)[C@@]2(C)C1=C(O)C(=O)C1=C2[C@H](OC(C)=O)C[C@]2(C)C(=O)CC[C@@H]12)CC=C [Sonolisib] (1000 nM) | 112% | 102% | 99.8% | 77.5% | 99.2% | 110% | 106% | 101% | 105% | 102% | 105% | 105% | 97.6% | 109% | 103% | 99% | 102% | 107% | 97.4% | 103% | 82.6% |  | 104% | 115% | 95.1% | 98.1% | 97% | 102% | 109% | 66.6% | 109% | 111% | 104% | 112% | 104% | 112% | 89.7%
C=CCN(/C=C1/C(=O)O[C@H](COC)[C@@]2(C)C1=C(O)C(=O)C1=C2[C@H](OC(C)=O)C[C@]2(C)C(=O)CC[C@@H]12)CC=C [Sonolisib] (10 nM) | 111% | 107% | 106% | 108% | 97.9% | 95.1% | 112% | 94.4% | 102% | 101% | 123% | 104% | 105% | 107% | 102% | 106% | 101% | 109% | 102% |  |  |  |  |  |  |  |  |  |  |  |  |  |  |  |  |  | 
CCN(CC)CCCC(C)Nc1ccnc2cc(Cl)ccc12 (stereo unspecified) [Chloroquine] (100 nM) | 103% | 103% | 103% | 71.1% | 102% | 46% | 99.9% | 102% | 94.5% | 98.8% | 88.3% | 91.5% | 93.7% | 88.6% | 96.7% | 92.9% | 91.7% | 100% | 103% |  |  |  |  |  |  |  |  |  |  |  |  |  |  |  |  |  | 
CCn1c(C(=O)N(C2CC2)C2CC2)cc2c3c(ncn3C)c(Nc3cc(C)n(C)n3)nc21 (1 nM) | 97.9% | 100% | 105% | 135% | 98% | 96.7% | 92.6% | 99.6% | 105% | 94.4% | 102% | 89.3% | 102% | 97.4% | 106% | 99.7% | 100% | 102% | 103% |  |  |  |  |  |  |  |  |  |  |  |  |  |  |  |  |  | 
CC(C)n1cnc2c(NCCc3ccc(O)cc3)nc(-c3csc4ccccc34)nc21 [StemRegenin 1] (10 nM) | 96.1% | 106% | 96.3% | 68.8% | 109% | 79.5% | 105% | 99.6% | 96.9% | 97.4% | 98.3% | 103% | 105% | 109% | 97.5% | 100% | 97.3% | 102% | 92.2% |  |  |  |  |  |  |  |  |  |  |  |  |  |  |  |  |  | 
CN(Cc1cnc2nc(N)nc(N)c2n1)c1ccc(C(=O)N[C@@H](CCC(=O)O)C(=O)O)cc1 [Methotrexate] (5 nM) | 97.6% | 107% | 107% | 103% | 109% | 88.1% | 100% | 102% | 101% | 99.5% | 118% | 116% | 107% | 105% | 109% | 105% | 108% | 108% | 117% |  |  |  |  |  |  |  |  |  |  |  |  |  |  |  |  |  | 
